We go through 68 compounds from the OPERA property sets (Mansouri et al. 2018).

Values after ≈ are worked out from the molar mass of the structure shown.

Details in one data set: not given
With `OCCC(F)(F)C(F)(F)C(F)(F)C(F)(F)C(F)(F)C(F)(F)C(F)(F)C(F)(F)F`, the logP is 5.58. In turn, `COc1c(Cl)c(Cl)c(Cl)c(Cl)c1Cl` yielded a logP of 5.45.

`Cc1ccc(S(=O)(=O)N(C)C(=O)c2ccccc2)cc1` showed a logP of 2.95. On to `O=C1CCC(=O)N1c1cc(Cl)cc(Cl)c1`, for which the logP worked out at 1.4. `c1ccc2c(c1)ccc1cc3ccc4ccccc4c3nc12` had a logP of 6.45.

Compound `Cc1cn([C@H]2C=C[C@@H](CO)O2)c(=O)[nH]c1=S` showed a logP of 0.09.

Take `CCCCN(CCC)N=O`: the logP stood at 2.09.

In turn, `O=C1c2cc([N+](=O)[O-])ccc2-c2ccc([N+](=O)[O-])cc21` registered a logP of 2.84.

Consider `CC(=O)N(C)S(=O)(=O)c1ccc(C)cc1`, for which the logP came out at 1.73. Same read-out and setting: the value for `NC(=O)CN1CCCC1=O` was -1.54. The same measure, in the same setting: to `Clc1cc(Cl)cc(O[Si]23OCCN(CCO2)CCO3)c1` belongs 1.22.

`CC(C)CCOC(=O)c1cc(=O)[nH]c(=O)[nH]1`: the logP turned out to be 1.48. Take `NCCc1nccs1`: the logP is 0.16. Compound `CCCOC(=O)[C@@H](N)Cc1ccc(O)c(O)c1` had a logP of 0.76. The same measure, in the same setting: the value for `CCC(CO)(CO)CO` was -1.48.

`O=C1CCC(c2ccc[n+]([O-])c2)N1` (stereo not drawn) returned a logP of -1.01. Same read-out and setting: the value for `c1ccc2nc3ccc4ccccc4c3cc2c1` was 4.48; that for `Nc1ccc(C=Cc2ccc(N)cc2S(=O)(=O)O)c(S(=O)(=O)O)c1` was -1.7; that for `c1ccc2cc3c(ccc4ccccc43)cc2c1` was 5.76.

Staying with this data set, now noted: 20 °C.
`CC(C)(C)C1CCC(O)CC1` (stereo not drawn): the solubility is 0.64 mM (≈ 100 µg/mL). Same read-out and setting: to `N#Cc1ccncc1` belongs 384 mM (≈ 40000 µg/mL); to `C=COCC(C)C`, 30 mM (≈ 3000 µg/mL).

The same data set, now with this note: 22 °C.
Turning to `CC(C)Nc1nc(Cl)nc(NC2CC2)n1`, the solubility was found to be 0.303 mM (≈ 69 µg/mL). Same read-out and setting: the value for `O=[N+]([O-])c1ccc(Oc2c(Cl)cc(Cl)cc2Cl)cc1` was 0.0024 mM (≈ 0.764 µg/mL).

The data set is the same for the next values; noted with them: 23 °C.
`NC(=O)c1c(Cl)cccc1Cl` registered a solubility of 14.4 mM (≈ 2730 µg/mL).

The data set is the same for the next values; noted with them: 23.0 °C.
For `CCC(=O)CO`, the log10 OH rate constant (cm³/molecule/s) is -11.1. On the same count and under the same terms, the value for `CC(=O)C(C)CO` (stereo not drawn) was -10.8.

The same data set, now with this note: 24 °C.
For `CCCCN(CC)N=O`, the solubility amounted to 92.2 mM (≈ 12000 µg/mL).

The same data set, now with this note: 24.0 °C.
In turn, `C[Si](C)(C)C` came in with a log10 OH rate constant (cm³/molecule/s) of -12.

The data set is the same for the next values; noted with them: 25 °C.
Compound `COCCc1ccc(OCC(O)CNC(C)C)cc1` (stereo not drawn) showed a solubility of 63.2 mM (≈ 16900 µg/mL). Still for that read-out and setting: the value for `O=C(O)CCC1CCCC1` was 17 mM (≈ 2420 µg/mL); that for `Brc1cc(Br)c(Br)cc1Br` was 0.000102 mM (≈ 0.04 µg/mL); that for `C=C(C)C(=O)OCC` was 47.3 mM (≈ 5400 µg/mL). For `CCOC`, the solubility was 832 mM (≈ 50000 µg/mL). On to `CC(C)c1ccccc1-c1ccccc1`, for which the solubility is 0.00306 mM (≈ 0.6 µg/mL). Still for that read-out and setting: to `CCCCCOC(=O)CC` belongs 5.62 mM (≈ 810 µg/mL); to `O=[N+]([O-])c1ccc(Nc2ccc(O)cc2)c([N+](=O)[O-])c1`, 0.0036 mM (≈ 0.99 µg/mL); to `CCCCOC(=O)c1ccc(C(=O)OCCCC)cc1`, 0.00341 mM (≈ 0.95 µg/mL). On the same count and under the same terms, the value for `C[Si](C)(C)O[Si](C)(C)O[Si](C)(C)C` was 0.000144 mM (≈ 0.034 µg/mL). In turn, `CCCCC(C=O)CC` (stereo not drawn) had a solubility of 3.12 mM (≈ 400 µg/mL). The same measure, in the same setting: the value for `C=CCCCCCCCC` was 0.00406 mM (≈ 0.57 µg/mL). Still for that read-out and setting: to `CC(=O)C=CC1=C(C)CCCC1(C)C` belongs 0.879 mM (≈ 169 µg/mL). On the same count and under the same terms, the value for `Cc1ccccc1C(C)C` was 0.174 mM (≈ 23.3 µg/mL); that for `CC(C)(C)c1cccc(O)c1` was 13.8 mM (≈ 2070 µg/mL). `Cc1ccc(C)cc1`: the solubility was determined as 1.53 mM (≈ 162 µg/mL).

For `C#Cc1ccccc1`, the solubility amounted to 4.46 mM (≈ 456 µg/mL). Compound `NNc1ccccc1` yielded a solubility of 1170 mM (≈ 127000 µg/mL).

Regarding `CCCCCCCCCCCCC`, the solubility was found to be 2.55e-05 mM (≈ 0.0047 µg/mL). Same read-out and setting: to `O=C(O)C(Br)(Br)Br` belongs 674 mM (≈ 200000 µg/mL); to `O=[N+]([O-])c1cccc2ccccc12`, 0.053 mM (≈ 9.18 µg/mL).

`CC1(C)[C@H]2CC[C@](C)(C2)[C@H]1O` had a solubility of 5.37 mM (≈ 828 µg/mL).

The same data set, now with this note: 25.0 °C.
In the case of `Clc1c(Cl)c(Cl)c2c(c1Cl)Oc1ccccc1O2`, the log10 OH rate constant (cm³/molecule/s) is -12.1.

Compound `CCC(C)Cl` (stereo not drawn) showed a log10 OH rate constant (cm³/molecule/s) of -11.6. Same read-out and setting: the value for `FC(F)C(F)(F)OCC(F)(F)F` was -13; that for `CCCc1c(F)c(F)c(F)c(F)c1F` was -11.5. In turn, `c1ccc(Nc2ccccc2)cc1` yielded a log10 OH rate constant (cm³/molecule/s) of -9.71. On the same count and under the same terms, to `FC(F)(Cl)C(Cl)Cl` belongs -13.3. `C=CC1(C)CCC(O)O1` (stereo not drawn) showed a log10 OH rate constant (cm³/molecule/s) of -10.1.

On to `c1ccc2c(c1)oc1ccccc12`, for which the log10 OH rate constant (cm³/molecule/s) is -11.4. Still for that read-out and setting: to `FC(F)OC(F)C(F)(F)F` (stereo not drawn) belongs -14.4; to `COCOC`, -11.3; to `FC(F)=C(F)C(F)(F)F`, -11.7.

The compound `O=CC(Cl)(Cl)Cl` showed a log10 OH rate constant (cm³/molecule/s) of -11.8.

`CCCCCCBr` returned a log10 OH rate constant (cm³/molecule/s) of -11.2.

Still in this data set, the particulars now being: 26 °C.
On to `Clc1cc2oc3cc(Cl)c(Cl)cc3c2cc1Cl`, for which the solubility is 2.26e-06 mM (≈ 0.000692 µg/mL).

The same data set, now with this note: 27.0 °C.
With `CC1=CC(=O)C=CC1=O`, the log10 OH rate constant (cm³/molecule/s) is -10.6. The same measure, in the same setting: to `Cc1ccc(C)o1` belongs -9.88.

The data set is the same for the next values; noted with them: 30 °C.
As for `Cc1ccc([N+](=O)[O-])cc1`, the solubility is 3.22 mM (≈ 442 µg/mL).

A word on the logP: it is the decadic logarithm of the partition coefficient of the neutral form, usually between octanol and water. By solubility is commonly meant the concentration that dissolves in the medium under given conditions.
